According to US9597360B2, “Method of treatment for pulpitis and/or enhancement for dentinogenesis” (National Center for Geriatrics and Gerontology, priority 2008, dated 2017):

Columns and labels:
HUVEC [1] = experiment: Modified Boyden chamber migration assay; type: cell-based, human
Procedure: Modified Boyden chamber assay was performed at 37° C. with a PET membrane (BD Bioscience, Franklin Lakes, N.J.) of 24 well for 24 hours. In the presence of 10 ng/ml of MMP3, 100 ng/ml of MMP3, 100 ng/ml of MMP3 and 0.13 μmol of NNGH, 50 ng/ml of MMP10, 50 ng/ml of MMP10 and 0.13 μmol of NNGH, 0.13 μmol of NNGH only, or 50 ng/ml of VEGF-A, 5×10^4 cells of HUVEC was cultured in the upper part of the chamber. As a control, a 0.02% bovine serum albumin (Sigma) was used. After incubations, HUVEC which migrated to the lower part of the membrane was detached by trypsin treatment and counted. […] The data represented the mean±SD of 4 samples.

[2] = tested on: amputated pulp of dog upper premolar teeth; experiment: Dog pulpotomy model; type: in vivo; settings: 100 ng MMP3 in spongel, 14 days
Procedure: After pulpotomy of dog upper premolar teeth, the amputated pulp was washed with 5% sodium hypochlorite solution and 3% hydrogen peroxide and further was washed with a saline, 100 ng of MMP3 absorbed in spongel was applied on the amputated pulp. Furthermore, the cavity was provisionally filled with phosphate cement and sealed with a chemical polymerization composite resin after application of a bonding agent. The tooth was extracted 14 days after treatment and fixed with 4% paraformaldehyde fixation at 4° C. overnight and decalcified at 4° C. in 10% formic acid for one week. Reparative dentin formation was observed after HE staining under light microscopy in the longitudinal paraffin 5 μm-section.

HUVEC [3] = experiment: Anti-apoptotic effect, staurosporine-induced apoptosis (Annexin V-FITC/Propidium Iodide flow cytometry); type: cell-based, human
Procedure: NNGH was added 30 minutes before adding MMP3. As a control, cells were cultured in EBM-2 without adding any in the presence of staurosporine. Four hours later, HUVEC was detached from the dish and stained with Annexin V-FITC (Roche) and Propidium Iodide (Sigma) in a cell suspension for 15 minutes and measured ratio of necrosis and apoptosis in flow cytometer JSAN (Bay Bioscience, Kobe).

[4] = tested on: amputated pulp of rat upper incisor; experiment: Rat pulp amputated model; type: in vivo
Procedure: After pulpotomy of rat upper incisor, and wash with a saline, 50 ng of MMP3 adsorbed in spongel was applied to the amputated pulp. As a control, 50 ng of MMP3 and 30 nmol NNGH adsorbed in spongel was applied to the amputated pulp. The cavity was temporally sealed with a bonding agent and a photopolymerization type composite resin (Unifil low flow, GC, Tokyo). 24 hours, 72 hours, or 7 days after application, the paraffin sections of the 5 μm thickness were examined morphologically after HE staining or Masson Trichrome staining.
For quantitative analysis of newly formed blood vessels, each 5 frozen sections at 24 hours after treatment both with MMP3 and control PBS from 4 incisors each, total 40 sections were stained with Fluorescein Griffonia (Bandeiraea) Simplicifolia lectin (BS1-lectin) as described above. Three rectangles of a standardized size (0.1 mm^2) were drawn in the upper part of pulp tissue under the amputated site in every five sections from one sample. The lectin-positive area relative to total area (1.5 mm^2) was quantitatively analyzed in a standardized procedure using BZ-II Analyzer (Keyence) software on a Keyence BZ-9000 fluorescence microscope (Keyence, Tokyo, Japan). The data were presented as means±standard deviation at 4 determinations.
To evaluate effect of MMP3 on proliferation, immunohistochemical analysis of Proliferating Cell Nuclear Antigen (PCNA) was performed. Paraffin sections of 24 hours after treatment were deparaffinized and antigen was retrieved by antigen unmasking solution (Vector Laboratories, Burlingame, Calif.) according to the manufacturer's instructions. Endogenous peroxidase activity and nonspecific staining were blocked as described earlier. The sections were incubated with anti-PCNA antibody (Dako) at dilutions of 1:100 in antibody diluent (Dako) overnight at 4° C., and further incubated with a peroxidase-conjugated secondary antibody (ImmPRESS reagent; Vector Laboratories) for 30 min at room temperature. After development by DAB Liquid System (Dako), sections were counterstained with hematoxylin, and photographed on an Olympus Vanox-s microscope (Olympus, Tokyo, Japan). For quantitative analysis of proliferating cells, each 3 paraffin sections at 24 hours after treatment both with MMP3 and control PBS from 4 incisors each were used. Three rectangles of a standardized size (0.1 mm^2) were drawn in the upper part of pulp tissue under the amputated site in every 3 sections. The positive staining cells were counted and quantitatively analyzed. The data were presented as means±standard deviation at 4 determinations.
For quantitative analysis of matrix formation, each 5 paraffin sections at 72 hours after treatment both with MMP3 and control PBS from 4 incisors each, and 5 sections at 7 days after treatment with MMP3, NNGH, and control PBS from 4 incisors each were stained with Masson's trichrome staining. The positive area was quantitatively analyzed in the upper part of pulp tissue under the amputated site, 2 mm in depth from the amputated site, using BZ-II Analyzer software. The data were presented as means±standard deviation at 4 determinations.

[5] = tested on: pulp cells from rat upper incisor; experiment: Induction of odontoblast differentiation using pulp cells (Dspp, enamelysin real-time RT-PCR); type: cell-based; settings: MMP3 100 ng/ml, 14 days and 21 days
Procedure: Pulp cells were isolated from rat upper incisor by the trypsin and collagenase digestion method and cultured in DMEM (Sigma, St. Louis, Mo., USA) including L-ascorbic acid phosphoric acid magnesium salt (Wako pure medicine) and 10% of […] fetal bovine serum (SAFC Biosciences, Lenexa, Kans., USA) and 100 unit/ml penicillin G, 100 μg/ml streptomycin (Invitrogen, Carlsbad, Calif., USA). MMP3 was added 100 ng/ml of MMP3, or 0.13 μmol of NNGH and 50 ng/ml human recombinant BMP2 to the cells at second passage of culture after confluence. Total RNA was extracted 14 days or 21 days after and analyzed expression of odontoblastic differentiation markers, dentin sialophosphoprotein (Dspp) and enamelysin by Real-time RT-PCR (table 1). […] When MMP3 was added, the differentiation inductive effect into odontoblasts in particular was […] in comparison without adding MMP3 of the control 14 days and 21 days after treatment.

[6] = tested on: inflamed pulp (pulpitis) of dog upper premolar tooth; experiment: Dog pulpitis model; type: in vivo
Procedure: The inflammation of the pulp was produced be open with cotton for 24 hours after pulpotomy in the dog upper premolar tooth. Subsequently 100 ng of MMP3 absorbed in spongel was applied to the amputated pulp after washing with 5% sodium hypochlorite solution and 3% hydrogen peroxide and further with a saline. Furthermore, the cavity was filled with phosphate cement and temporally sealed with a chemical polymerization composite resin after application with a bonding agent. The tooth was extracted 14 days later, immersed at 4° C. overnight and followed by fixation and decalcification at 4° C. in 10% formic acid for one week. The reparative dentin formation was observed by an light microscope after H.E. staining at 5 μm-paraffin sections. FIG. 11A is a figure of micrograph showing healing of pulpitis state 14 days after MMP3 application in the upper premolar tooth of the dog in which pulpitis had been produced. FIG. 11B is a figure of micrograph of the high power to show healing of pulpitis state 14 days after MMP3 application in the upper premolar tooth of the dog in which pulpitis had been produced. FIG. 11C is a figure of micrograph 14 days in case of the PBS control of the upper premolar tooth of the dog in which pulpitis produces had been produced. FIG. 11D is a figure of micrograph of the high power 14 days in case of the PBS control of the upper premolar tooth of the dog n which pulpitis had been produced.

[7] = tested on: Human umbilical vein endothelial cells (HUVECs); experiment: Proliferative effect on endothelial cells (Tetra-color one, 450 nm absorbance); type: cell-based; settings: HUVEC
Procedure: Human umbilical vein endothelial cells (HUVECs) (KURABO Industries, Osaka,) were seeded with 1,000 cells per 96 well. […] Ten μl of Tetra-color one (Seikagaku Kogyo, Co., Tokyo, Japan) was added to the 96 well plate, and cell numbers were measured using spectrophotometer at 450 nm absorbance at 2, 12, 24, 36, 48, 60 hours of culture. Wells without cells were served as negative controls.

Molecule: MMP3: human MMP3 (Chemicon); protein of the MMP family, referred to as stromelysin 1; active ingredient of the medicament
- migration promotion effect on HUVEC in comparison with control (HUVEC [1]; 10 ng/ml, 24 hours): significant difference was not detected
- migration of HUVEC, increase compared with the control (HUVEC [1]; 100 ng/ml, 24 hours, control 0.02% bovine serum albumin): approximately 3.5 times
- cell proliferation in the vicinity of the amputated surface [2]: a large number
- reparative dentin formation in the upper part of the amputated pulp [2]: a large quantity
- apoptotic cells (HUVEC [3]; MMP3 50 ng/ml added at the same time of Staurosporine 100 nM, four hours): 20%
- PCNA positively staining cells ([4]; 50 ng MMP3, 24 hours after pulpotomy, pulp under the amputated site): 98.5 cells/mm^2
- increase of the vascularization density versus PBS group ([4]; 50 ng MMP3, 24 hours, BS1-lectin positive area): double
- newly formed blood vessels stained with BS1-lectin under the amputated surface, in comparison with MMP3 free group ([4]; 50 ng MMP3 in spongel, 24 hours after pulpotomy): more detected
- PCNA positively staining cells, increase versus non applied group ([4]; 24 hours after pulpotomy): 2.7 times
- osteodentin formation around newly differentiated odontoblasts/osteodentinoblasts (Masson's Trichrome staining) ([4]; 72 hours after application): observed
- DSPP mRNA expression in newly differentiated odontoblasts/osteodentinoblasts (in situ hybridization) ([4]; 72 hours after pulpotomy): seen
- amount of osteodentin in comparison with non applied MMP3 (HE staining) ([4]; 72 hours after pulpotomy): larger amount
- inflammatory cell infiltration (HE staining) ([4]; 72 hours after pulpotomy): not observed
- dentin matrix formation under the amputated site, increase in comparison with PBS control group ([4]; 72 hours after pulpotomy, P<0.01): 3.8 times
- differentiation inductive effect into odontoblasts (Dspp, enamelysin mRNA) in comparison with control without MMP3 [5]: not seen
- proliferation under the amputated pulp ([6]; 100 ng MMP3, 14 days): seen
- reparative dentin formation ([6]; 100 ng MMP3, 14 days): sometimes observed
- vascularization ([6]; 100 ng MMP3, 14 days): enhanced
- inflammation state of the pulp ([6]; 100 ng MMP3 in spongel, 14 days): very slight
- increase of proliferation, 48-hour application in comparison with 2-hour application ([7]; MMP3 50 ng/mL): approximately 10 times

Molecule: MMP10/Stromelysin-2: MMP-10 (R&D Systems); an isomer of MMP3
- migration effect (HUVEC [1]; HUVEC, 50 ng/ml of MMP10): did not have
- anti-apoptotic effect (HUVEC [3]; 50 ng/ml of MMP10, staurosporine 100 nM): did not have
- proliferative effect ([7]; MMP-10 50 ng/mL): did not have

Molecule: CN[C@@H]1C[C@H]2O[C@@](C)([C@@H]1OC)n1c3ccccc3c3c4c(c5c6ccccc6n2c5c31)C(=O)NC4 [Staurosporine, reference compound]
- apoptosis, % of cells (HUVEC [3]; Staurosporine 100 nM alone, four hours): 52%

Molecule: COc1ccc(S(=O)(=O)N(CC(=O)NO)CC(C)C)cc1 [NNGH, N-Isobutyl-N-(4-methoxyphenylsulfonyl)-glycylhydroxamic acid, reference compound]
- migration effect of MMP3 when NNGH added at the same time (HUVEC [1]; HUVEC, 100 ng/ml MMP3 and 0.13 μmol NNGH): inhibited
- anti-apoptotic effect of MMP3 when NNGH added at the same time (HUVEC [3]; 50 ng/ml MMP3 with 0.13 μmol NNGH, staurosporine 100 nM): inhibited
- dentin matrix formation in comparison with PBS control group ([4]; 7 days after pulpotomy, P<0.01): Significant decrease
- proliferative effect of MMP3 when NNGH added at the same time ([7]; MMP3 50 ng/mL with NNGH 0.13 μM): restrained
- proliferative effect in comparison with the no addition group of MMP3 ([7]; NNGH added): almost the same
